According to patent publication US10450572B2, “Androgen receptor variant inhibitors and methods of using” (Regents of the University of Minnesota, priority 2016, dated 2019):
“Also recorded” adds a separate entry of the source. {Fluorescein} = fluorescein label

Columns and labels:
[1] = test system: AR-V7, AR-V9 (EX3:CE5), AR-V1 (EX3:CE1), AR-V6 (EX3:CE2a); assay: AR-V mRNA and protein expression after morpholino transfection (RT-qPCR, western blot); format: cell-based, human; conditions: FIG. 11C
Protocol: (§1) 22Rv1 cells (CRL-2505) were obtained from ATCC (Manassas, Va., USA) and cultured according to ATCC protocol. LNCaP95 cells were cultured in phenol red free RMPI 1640 (Invitrogen) supplemented with 10% fetal bovine serum and 1× penicillin/streptomycin. VCaP cells (ATCC CRL-2876) were cultured in DMEM medium (Invitrogen) supplemented with 10% fetal bovine serum and 1× penicillin/streptomycin. ATCC authenticates human cell lines using short tandem repeat analysis. Cell lines were routinely monitored for mycoplasma infection by regularly evaluating aliquots of supernatants from cells in culture for mycoplasma contamination using a PCR-based method as described elsewhere (see, e.g., Uphoff et al., 2012, J. Biomed. Biotechnol., 2012:267678). […]
(§2) RNA was isolated from cells using the Reliaprep RNA Miniprep System (Promega) and purified according to kit manufacturer instructions, including a 30-minute room temperature DNase treatment. […] RNA concentration and integrity were assessed by denaturing gel electrophoresis or by spectrophotometry with a NanoDrop 2000 (ThermoFisher). […]
(§3) Quantitative PCR was performed using Quanta PerfeCTa master mix, 200 nM forward and reverse primers, and 2 μL input cDNA (serially diluted in nuclease free water 1:50 for 18S samples) in 20 μL reactions. […] Cycle thresholds (Ct) were determined using the Biorad CFX manager software. […]

AR mRNA = assay: specificity test with morpholinos tiling the CE3 PAS: AR mRNA; format: cell-based, human; conditions: 22Rv1 cells; 10 μM morpholino, 24 hours after transfection; FIG. 19B
Protocol: (§4) GeneTools' design tool was used to design morpholinos targeting upstream and downstream regions of AR CE3. Sequences were as follows:
(§5) 22Rv1 cells were transfected with 10 μM control and morpholinos tiling upstream (us) and downstream (ds) of the CE3 PAS (us 100, us 50, CE3 pAM, ds 50, ds 150).
(§6) Total RNA from tumor tissue was purified using the Promega Reliaprep Tissue kit according to manufacturer instructions, including the on-column DNAse treatment. RNA was eluted in nuclease free water. Reverse transcription and quantitative PCR were performed as described in Example 2. Data were analyzed using the ΔΔCt method and normalized to actin-2 (internal control).

AR-V proteins = assay: AR-V protein expression in E43 cells (western blot); format: cell-based; conditions: E43 cells transfected with CE3 pAM; FIG. 3A
Protocol: (§7) E43 cells were cultured in RPMI-1640 and supplemented with 10% FBS and 500 μg/mL penicillin/streptomycin. For androgen blockade experiments, E43 cells were cultured in RPMI-1640 supplemented with 10% charcoal stripped FBS and 500 μg/mL penicillin/streptomycin. Transient transfections were performed using a BTX Square Wave electroporator. Transient transfection of E43 cells with the indicated concentration of CE3 pAM were carried out in RPMI-1640 supplemented with 10% FBS, and subsequently plated in appropriate culture medium. When appropriate, E43 cells were treated with 10 μM enzalutamide (MDV-3100, Selleck Chemicals) in indicated cell culture medium. E43 cells in cell culture medium were treated with vivo-CE3 pAM in 1X phosphate buffered saline at the indicated concentrations.

[2] = test system: AR-V2, AR-V5, AR-V7, and AR-V9 mRNA; assay: AR-V mRNA expression in E43 cells; format: cell-based; conditions: E43 cells transfected with CE3 pAM; FIG. 3B
Protocol: as §7

full-length AR (AR-FL) = assay: full-length AR expression in E43 cells; format: cell-based; conditions: E43 cells transfected with CE3 pAM; FIG. 3A
Protocol: as §7

AR-V7 mRNA = assay: specificity test with morpholinos tiling the CE3 PAS: AR-V7 mRNA; format: cell-based, human; conditions: 22Rv1 cells; 10 μM morpholino, 24 hours after transfection; FIG. 19B
Protocol: as §4, §5, §6

22Rv1 cells = assay: crystal violet growth assay of 22Rv1 cells; format: cell-based, human; conditions: parental 22Rv1 cells transfected with 10 μM; androgen-deplete conditions; FIG. 11D
Protocol: (§8) 22Rv1 cells (CRL-2505) were obtained from ATCC (Manassas, Va., USA) and cultured according to ATCC protocol. LNCaP95 cells were cultured in phenol red free RMPI 1640 (Invitrogen) supplemented with 10% fetal bovine serum and 1× penicillin/streptomycin. VCaP cells (ATCC CRL-2876) were cultured in DMEM medium (Invitrogen) supplemented with 10% fetal bovine serum and 1× penicillin/streptomycin. ATCC authenticates human cell lines using short tandem repeat analysis. Cell lines were routinely monitored for mycoplasma infection by regularly evaluating aliquots of supernatants from cells in culture for mycoplasma contamination using a PCR-based method as described elsewhere (see, e.g., Uphoff et al., 2012, J. Biomed. Biotechnol., 2012:267678).
GeneTools' design tool was used to design a 25-mer consisting of the sequence 5′-[…]-3′ (SEQ ID NO:2) targeted to the CE3 PAS (CE3 pAM). As a control, a standard commercially available nontargeting control morpholino was used (GeneTools). […]
(§9) Electroporated 22Rv1 cells and sublines were seeded at 20,000 cells per well in 24 well dishes in RPMI 1640 supplemented with 10% charcoal-stripped FBS. […] Crystal violet staining assays were performed as described elsewhere (see, e.g., Li et al., 2013, Cancer Res., 73:483-9) and absorbance was measured at 560 nm. Significance was assessed by two tailed t-tests in GraphPad.

E43 cells = assay: crystal violet growth assay of E43 cells; format: cell-based; conditions: FIG. 3C; for cell growth (crystal violet staining): E43 cells
Protocol: as §7
20,000 E43 cells transfected with 10 μM CE3 pAM or control morpholino were plated in 24-well dishes in the indicated culture medium and subjected to the indicated drug treatments. Crystal violet assays were performed on cells on days 2, 4, 6, 8, 11, and 14. Briefly, cells were fixed in 1% glutaraldehyde in 1X PBS and stained with 0.5% crystal violet in distilled water. At the end of the timecourse, fixed and stained cells were subjected to treatment with Sorenson's buffer (6.1 ml of 0.1 M disodium citrate, 3.9 ml of 0.1N HCl, and 10 ml of 95% ethanol) to release dye. Absorbance was measured at 560 nm.

AR-FL [3] = assay: AR-FL expression after morpholino transfection; format: cell-based, human; conditions: FIG. 11C
Protocol: as §1, §2, §3

22Rv1-undup3 cells = assay: crystal violet growth assay of 22Rv1-undup3 cells; format: cell-based, human; conditions: 22Rv1-undup3 cells transfected with 10 μM, FIG. 11D
Protocol: as §8
Cell/siRNA mixtures were electroporated in a 4-mm gap-width cuvette (BTX) with a BTX Square Wave Electroporator (22Rv1 and sublines: 350 V, 10 ms pulse, LNCaP95: 305 V, 10 ms pulse). Following a 15-minute recovery, cells were seeded in appropriate culture medium. […]
as §9

AR-FL [4] = assay: AR subcellular fractionation and western blot; format: cell-based, human; conditions: 22Rv1-undup3 cells; 1 nM, 24 hours; FIG. 8
Protocol: For AR subcellular fractionation, 22Rv1-undup3 cells were seeded in RPMI medium supplemented with 10% CSS for 24 hours and treated with either ethanol (vehicle) or 1 nM mibolerone (synthetic androgen) for 24 hours. Cells were washed with 1×PBS, harvested in hypotonic buffer, and subjected to subcellular fractionation as described elsewhere (see, e.g., Chan et al., 2012, J. Biol. Chem., 287:19736-49). Lysates in 1× Laemmli buffer were loaded in equal volumes on either 7.5% or 4-15% polyacrylamide gels (Biorad TGX) and electrophoresed at 200v for 30 minutes.
Blots were incubated with antibodies specific to CPSF1 (Bethyl, A301-580, 1:1000), AR (Santa Cruz Santa Cruz Biotechnology N-20, 1:2000), extracellular signal-regulated kinase-2 (ERK-2; Santa Cruz Biotechnology D-2, 1:4000), and AR-V7 (Precision Antibodies, 1:1000). HRP-conjugated goat-anti-mouse (#sc 2005, lot#D1515), and goat-anti-rabbit (#sc 2004, lot#B1315) secondary antibodies were obtained from Santa Cruz and were used at 1:10000 dilutions. Blots were incubated in enhanced chemiluminescence substrate (WesternBright, Advansta #K12045-D50 or SuperSignal West Pico, Thermo #1859674) and exposed to X-ray film for chemiluminescence detection.

[5] = 22Rv1-undup3 cells transfected with 10 μM
[6] = 22Rv1 cells transfected with 10 μM

Molecule | mRNA and protein expression of AR-V7, AR-V9, AR-V1, AR-V6 [1, 5] | mRNA and protein expression of AR-V7, AR-V9, AR-V1, AR-V6 [1, 6] | AR mRNA levels (AR mRNA) | expression of AR-V proteins (AR-V proteins) | expression of AR-V2, AR-V5, AR-V7, and AR-V9 mRNA [2] | expression of full-length AR (AR-FL) (full-length AR (AR-FL)) | AR-V7 mRNA levels (AR-V7 mRNA) | growth (crystal violet) (22Rv1 cells) | reduction in cell growth assessed by crystal violet staining (E43 cells; E43 cells transfected, charcoal stripped serum, plus 10 uM enzalutamide) [%] | cell growth (crystal violet staining) (E43 cells; 10 μM morpholino transfected, maximum androgen blockade castration+enzalutamide) | cell growth (crystal violet staining) (E43 cells; transfected, androgenic conditions) | expression of AR-FL (AR-FL [3]; [5]) | expression of AR-FL (AR-FL [3]; [6]) | growth (crystal violet) (22Rv1-undup3 cells; androgen-deplete conditions) | growth (crystal violet) (22Rv1-undup3 cells; androgen-replete conditions (1 nM DHT)) | nuclear localization of AR-FL (AR-FL [4])
CE3 pAM: 25-mer morpholino 5′-GTGTATTAATGGCTTTATTAAGGGA-3′ (SEQ ID NO:2) designed to block the AR CE3 poly A signal (all phosphorodiamidate morpholino (PMO), 3' {Fluorescein}; further chemistry not fully specified) | reduction | reduction | increased | blocks; also recorded: dramatically reduced | blocks; also recorded: blocked expression | increase expression | reduced | reduction in growth | ~50 | blocks growth; also recorded: inhibited cell growth | not under androgenic conditions | increase | increase | reduction in growth | inhibited growth | 
C[C@@H]1CC2=CC(=O)CC[C@@H]2[C@H]2CC[C@@]3(C)[C@@H](CC[C@]3(C)O)[C@@H]21 [mibolerone] |  |  |  |  |  |  |  |  |  |  |  |  |  |  |  | strong nuclear localization; also recorded: localizes to the nucleus
